Laboratory results taken from a compilation of properties of binary mixtures (doi:10.1007/s10953-020-00967-3).

Test: xn = mol fraction of the nth substance listed
Conditions: 101 kPa

CN(C)C=O + CCCC[n+]1ccn(C)c1.F[B-](F)(F)F
viscosity (293.15 K, x2 = 0): 0.88 mPa·s
viscosity (298.15 K, x2 = 0): 0.83 mPa·s
viscosity (303.15 K, x2 = 0): 0.78 mPa·s
viscosity (308.15 K, x2 = 0): 0.74 mPa·s
viscosity (313.15 K, x2 = 0): 0.7 mPa·s
viscosity (318.15 K, x2 = 0): 0.67 mPa·s
viscosity (323.15 K, x2 = 0): 0.63 mPa·s

CCCC[n+]1ccn(C)c1.F[B-](F)(F)F + CN(C)C=O
viscosity (293.15 K, x1 = 0.16): 5.71 mPa·s
viscosity (293.15 K, x1 = 0.24): 9 mPa·s
viscosity (293.15 K, x1 = 0.34): 13.7 mPa·s
viscosity (293.15 K, x1 = 0.43): 18.4 mPa·s
viscosity (293.15 K, x1 = 0.55): 26.7 mPa·s
viscosity (293.15 K, x1 = 0.65): 38.3 mPa·s
viscosity (293.15 K, x1 = 0.74): 55.2 mPa·s
viscosity (293.15 K, x1 = 0.83): 77 mPa·s
viscosity (293.15 K, x1 = 0.94): 105 mPa·s
viscosity (293.15 K, x1 = 1): 125 mPa·s
viscosity (298.15 K, x1 = 0.08): 2.56 mPa·s
viscosity (298.15 K, x1 = 0.16): 3.95 mPa·s
viscosity (298.15 K, x1 = 0.24): 5.82 mPa·s
viscosity (298.15 K, x1 = 0.34): 8.9 mPa·s
viscosity (298.15 K, x1 = 0.43): 12.1 mPa·s
viscosity (298.15 K, x1 = 0.55): 17.7 mPa·s
viscosity (298.15 K, x1 = 0.65): 27.6 mPa·s
viscosity (298.15 K, x1 = 1): 105 mPa·s
viscosity (303.15 K, x1 = 0.08): 2.3 mPa·s
viscosity (303.15 K, x1 = 0.16): 3.21 mPa·s
viscosity (303.15 K, x1 = 0.24): 4.17 mPa·s
viscosity (303.15 K, x1 = 0.34): 6.22 mPa·s
viscosity (303.15 K, x1 = 0.43): 8 mPa·s
viscosity (303.15 K, x1 = 0.55): 12.7 mPa·s
viscosity (303.15 K, x1 = 0.65): 20.7 mPa·s
viscosity (303.15 K, x1 = 0.74): 33.6 mPa·s
viscosity (303.15 K, x1 = 0.83): 51.9 mPa·s
viscosity (303.15 K, x1 = 1): 88 mPa·s
viscosity (308.15 K, x1 = 0.08): 2.27 mPa·s
viscosity (308.15 K, x1 = 0.16): 3.29 mPa·s
viscosity (308.15 K, x1 = 0.24): 3.9 mPa·s
viscosity (308.15 K, x1 = 0.34): 4.65 mPa·s
viscosity (308.15 K, x1 = 0.55): 9.6 mPa·s
viscosity (308.15 K, x1 = 0.65): 16 mPa·s
viscosity (308.15 K, x1 = 0.74): 26.2 mPa·s
viscosity (308.15 K, x1 = 0.83): 42.4 mPa·s
viscosity (308.15 K, x1 = 0.94): 61.9 mPa·s
viscosity (308.15 K, x1 = 1): 72 mPa·s
viscosity (313.15 K, x1 = 0.08): 1.95 mPa·s
viscosity (313.15 K, x1 = 0.24): 2.61 mPa·s
viscosity (313.15 K, x1 = 0.34): 2.49 mPa·s
viscosity (313.15 K, x1 = 0.43): 2.98 mPa·s
viscosity (313.15 K, x1 = 0.55): 5.74 mPa·s
viscosity (313.15 K, x1 = 0.65): 10.4 mPa·s
viscosity (313.15 K, x1 = 0.83): 32.6 mPa·s
viscosity (313.15 K, x1 = 0.94): 49.3 mPa·s
viscosity (313.15 K, x1 = 1): 57.7 mPa·s
viscosity (318.15 K, x1 = 0.16): 1.84 mPa·s
viscosity (318.15 K, x1 = 0.24): 1.59 mPa·s
viscosity (318.15 K, x1 = 0.34): 0.55 mPa·s
viscosity (318.15 K, x1 = 0.65): 5.23 mPa·s
viscosity (318.15 K, x1 = 0.83): 23.6 mPa·s
viscosity (318.15 K, x1 = 0.94): 37.5 mPa·s
viscosity (318.15 K, x1 = 1): 44 mPa·s
viscosity (323.15 K, x1 = 0.16): 1.63 mPa·s
viscosity (323.15 K, x1 = 0.24): 1.88 mPa·s
viscosity (323.15 K, x1 = 0.34): 1.38 mPa·s
viscosity (323.15 K, x1 = 0.43): 0.75 mPa·s
viscosity (323.15 K, x1 = 0.55): 0.5 mPa·s
viscosity (323.15 K, x1 = 0.65): 2.3 mPa·s
viscosity (323.15 K, x1 = 0.83): 15.9 mPa·s
viscosity (323.15 K, x1 = 1): 31.6 mPa·s
